Data published in PubChem BioAssay (NCI).
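1) Cells in 96-well plates. 2) Compound, 48 h, 5 concentrations. 3) Linear interpolation between surrounding doses. 4) Unreached endpoint = highest concentration. GI50 marks 50% less growth. The concentration for full growth arrest is given as TGI.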

Legend:
Experiment in all cases: NCI-60 cell line screen, 48 h
SNB-19 CNS = system: SNB-19 CNS
M14 melanoma = system: M14 melanoma
NCI-H23 lung = system: NCI-H23 lung
OVCAR-4 ovarian = system: OVCAR-4 ovarian
HOP-62 NSCLC = system: HOP-62 NSCLC
OVCAR-5 ovarian = system: OVCAR-5 ovarian
HCT-15 colon = system: HCT-15 colon
COLO 205 colon = system: COLO 205 colon
HT29 colon = system: HT29 colon
LOX IMVI melanoma = system: LOX IMVI melanoma
NCI-H522 lung = system: NCI-H522 lung
SF-295 CNS = system: SF-295 CNS
MALME-3M melanoma = system: MALME-3M melanoma
UACC-62 melanoma = system: UACC-62 melanoma
SK-MEL-28 melanoma = system: SK-MEL-28 melanoma
HOP-92 NSCLC = system: HOP-92 NSCLC
ACHN renal = system: ACHN renal
SF-268 CNS = system: SF-268 CNS
HL-60(TB) leukemia = system: HL-60(TB) leukemia
SK-OV-3 ovarian = system: SK-OV-3 ovarian
U251 CNS = system: U251 CNS
EKVX NSCLC = system: EKVX NSCLC
IGROV1 ovarian = system: IGROV1 ovarian
HCT-116 colon = system: HCT-116 colon
SR leukemia = system: SR leukemia
NCI-H226 lung = system: NCI-H226 lung
KM12 colon = system: KM12 colon
TK-10 renal = system: TK-10 renal
SF-539 CNS = system: SF-539 CNS
MOLT-4 leukemia = system: MOLT-4 leukemia
SK-MEL-2 melanoma = system: SK-MEL-2 melanoma
OVCAR-8 ovarian = system: OVCAR-8 ovarian
RXF 393 renal = system: RXF 393 renal
HCC-2998 colon = system: HCC-2998 colon
SK-MEL-5 melanoma = system: SK-MEL-5 melanoma
A549 NSCLC = system: A549 NSCLC
OVCAR-3 ovarian = system: OVCAR-3 ovarian
NCI-H460 lung = system: NCI-H460 lung
SNB-75 CNS = system: SNB-75 CNS
UACC-257 melanoma = system: UACC-257 melanoma
KM20L2 colon = system: KM20L2 colon
UO-31 renal = system: UO-31 renal
CAKI-1 renal = system: CAKI-1 renal
SW-620 colon = system: SW-620 colon
PC-3 prostate = system: PC-3 prostate
CCRF-CEM leukemia = system: CCRF-CEM leukemia
HS 578T breast = system: HS 578T breast
K-562 leukemia = system: K-562 leukemia
RPMI-8226 leukemia = system: RPMI-8226 leukemia
MDA-MB-231 breast = system: MDA-MB-231 breast
A498 renal = system: A498 renal
BT-549 breast = system: BT-549 breast
786-0 renal = system: 786-0 renal
MDA-N = system: MDA-N
MCF7 breast = system: MCF7 breast
DU-145 prostate = system: DU-145 prostate
MDA-MB-435 = system: MDA-MB-435
SN12C renal = system: SN12C renal
NCI/ADR-RES ovarian = system: NCI/ADR-RES ovarian
T-47D breast = system: T-47D breast

SMILES: O=C(N/N=C/c1cc(Br)cc(Br)c1[O-])c1ccccc1O.O=C(N/N=C/c1cc(Br)cc(Br)c1[O-])c1ccccc1O.[Zn+2]
- TGI (SNB-19 CNS): 12.2 µM
- TGI (M14 melanoma): 8.3 µM
- TGI (NCI-H23 lung): 3.17 µM
- TGI (OVCAR-4 ovarian): 1.5 µM
- TGI (HOP-62 NSCLC): 4.5 µM
- TGI (OVCAR-5 ovarian): 13.1 µM
- TGI (HCT-15 colon): 14.4 µM
- TGI (COLO 205 colon): 20.9 µM
- TGI (HT29 colon): 12.3 µM
- TGI (LOX IMVI melanoma): 13.7 µM
- TGI (NCI-H522 lung): 1.47 µM
- TGI (SF-295 CNS): 5.28 µM
- TGI (MALME-3M melanoma): 8.77 µM
- TGI (UACC-62 melanoma): 2.34 µM
- TGI (SK-MEL-28 melanoma): 11.5 µM
- TGI (HOP-92 NSCLC): 5.09 µM
- TGI (ACHN renal): 15 µM
- TGI (SF-268 CNS): 17.5 µM
- TGI (HL-60(TB) leukemia): 0.547 µM
- TGI (SK-OV-3 ovarian): 8.49 µM
- TGI (U251 CNS): 2.01 µM
- TGI (EKVX NSCLC): 10.9 µM
- TGI (IGROV1 ovarian): 5.55 µM
- TGI (HCT-116 colon): 13 µM
- TGI (SR leukemia): 4 µM
- TGI (NCI-H226 lung): 3.19 µM
- TGI (KM12 colon): 15.9 µM
- TGI (TK-10 renal): 15 µM
- TGI (SF-539 CNS): 10.7 µM
- TGI (MOLT-4 leukemia): > 100 µM
- TGI (SK-MEL-2 melanoma): 12 µM
- TGI (OVCAR-8 ovarian): 10.5 µM
- TGI (RXF 393 renal): 11.9 µM
- TGI (HCC-2998 colon): 3.42 µM
- TGI (SK-MEL-5 melanoma): 2.58 µM
- TGI (A549 NSCLC): 21.6 µM
- TGI (OVCAR-3 ovarian): 0.742 µM
- TGI (NCI-H460 lung): 9.26 µM
- TGI (SNB-75 CNS): 18.8 µM
- TGI (UACC-257 melanoma): 10.6 µM
- TGI (KM20L2 colon): 6.57 µM
- TGI (UO-31 renal): 10.6 µM
- TGI (CAKI-1 renal): 7.29 µM
- TGI (SW-620 colon): 19.5 µM

SMILES: Cc1ccc2nc(C(C)C)c(=O)[nH]c2c1
- TGI (SNB-19 CNS): > 100 µM
- TGI (M14 melanoma): > 100 µM
- TGI (NCI-H23 lung): > 100 µM
- TGI (OVCAR-4 ovarian): > 100 µM
- TGI (HOP-62 NSCLC): 30.9 µM
- TGI (OVCAR-5 ovarian): > 100 µM
- TGI (PC-3 prostate): 34.1 µM
- TGI (HCT-15 colon): > 100 µM
- TGI (CCRF-CEM leukemia): > 100 µM
- TGI (HS 578T breast): > 100 µM
- TGI (COLO 205 colon): > 100 µM
- TGI (HT29 colon): > 100 µM
- TGI (K-562 leukemia): > 100 µM
- TGI (NCI-H522 lung): > 100 µM
- TGI (SF-295 CNS): > 100 µM
- TGI (MALME-3M melanoma): > 100 µM
- TGI (UACC-62 melanoma): > 100 µM
- TGI (RPMI-8226 leukemia): > 100 µM
- TGI (SK-MEL-28 melanoma): > 100 µM
- TGI (HOP-92 NSCLC): > 100 µM
- TGI (ACHN renal): > 100 µM
- TGI (MDA-MB-231 breast): > 100 µM
- TGI (SF-268 CNS): > 100 µM
- TGI (A498 renal): > 100 µM
- TGI (BT-549 breast): > 100 µM
- TGI (HL-60(TB) leukemia): > 100 µM
- TGI (SK-OV-3 ovarian): > 100 µM
- TGI (U251 CNS): > 100 µM
- TGI (786-0 renal): > 100 µM
- TGI (MDA-N): > 100 µM
- TGI (EKVX NSCLC): > 100 µM
- TGI (MCF7 breast): > 100 µM
- TGI (IGROV1 ovarian): > 100 µM
- TGI (HCT-116 colon): > 100 µM
- TGI (DU-145 prostate): > 100 µM
- TGI (SR leukemia): > 100 µM
- TGI (NCI-H226 lung): > 100 µM
- TGI (KM12 colon): > 100 µM
- TGI (TK-10 renal): > 100 µM
- TGI (SF-539 CNS): > 100 µM
- TGI (MOLT-4 leukemia): > 100 µM
- TGI (SK-MEL-2 melanoma): 28.2 µM
- TGI (OVCAR-8 ovarian): > 100 µM
- TGI (RXF 393 renal): > 100 µM
- TGI (HCC-2998 colon): > 100 µM
- TGI (SK-MEL-5 melanoma): > 100 µM
- TGI (A549 NSCLC): > 100 µM
- TGI (MDA-MB-435): > 100 µM
- TGI (OVCAR-3 ovarian): 32.8 µM
- TGI (NCI-H460 lung): > 100 µM
- TGI (SNB-75 CNS): > 100 µM
- TGI (SN12C renal): > 100 µM
- TGI (NCI/ADR-RES ovarian): > 100 µM
- TGI (UACC-257 melanoma): > 100 µM
- TGI (T-47D breast): > 100 µM
- TGI (UO-31 renal): > 100 µM
- TGI (CAKI-1 renal): > 100 µM
- TGI (SW-620 colon): > 100 µM

SMILES: Cc1ccc2c(=O)cc(-c3ccc4ccccc4c3)[nH]c2n1
- TGI (SNB-19 CNS): > 100 µM
- TGI (M14 melanoma): > 100 µM
- TGI (NCI-H23 lung): 28.7 µM
- TGI (OVCAR-4 ovarian): 93.2 µM
- TGI (HOP-62 NSCLC): > 100 µM
- TGI (OVCAR-5 ovarian): > 100 µM
- GI50 (PC-3 prostate): 2.62 µM
- TGI (PC-3 prostate): 9.61 µM
- TGI (HCT-15 colon): > 100 µM
- TGI (CCRF-CEM leukemia): 14.6 µM
- TGI (HS 578T breast): 20 µM
- TGI (COLO 205 colon): 5.55 µM
- TGI (HT29 colon): > 100 µM
- TGI (LOX IMVI melanoma): 39.6 µM
- TGI (K-562 leukemia): 13 µM
- TGI (NCI-H522 lung): 20.5 µM
- GI50 (SF-295 CNS): 3.8 µM
- TGI (SF-295 CNS): 39.6 µM
- TGI (MALME-3M melanoma): > 100 µM
- TGI (UACC-62 melanoma): 24.1 µM
- TGI (RPMI-8226 leukemia): 19.5 µM
- TGI (SK-MEL-28 melanoma): > 100 µM
- TGI (HOP-92 NSCLC): 7.7 µM
- TGI (ACHN renal): > 100 µM
- TGI (MDA-MB-231 breast): > 100 µM
- TGI (SF-268 CNS): > 100 µM
- TGI (A498 renal): 15.5 µM
- TGI (BT-549 breast): > 100 µM
- TGI (HL-60(TB) leukemia): 4.18 µM
- TGI (SK-OV-3 ovarian): > 100 µM
- GI50 (U251 CNS): 4.57 µM
- TGI (U251 CNS): > 100 µM
- TGI (786-0 renal): > 100 µM
- GI50 (MDA-N): 1.94 µM
- TGI (MDA-N): 4.69 µM
- TGI (EKVX NSCLC): > 100 µM
- TGI (MCF7 breast): 37.9 µM
- TGI (IGROV1 ovarian): 82.7 µM
- GI50 (HCT-116 colon): 4 µM
- TGI (HCT-116 colon): 87.9 µM
- TGI (DU-145 prostate): > 100 µM
- TGI (SR leukemia): 5.59 µM
- TGI (NCI-H226 lung): 98.4 µM
- TGI (KM12 colon): 65.4 µM
- TGI (TK-10 renal): > 100 µM
- TGI (SF-539 CNS): 54.1 µM
- TGI (MOLT-4 leukemia): 29.1 µM
- TGI (SK-MEL-2 melanoma): > 100 µM
- TGI (OVCAR-8 ovarian): > 100 µM
- TGI (HCC-2998 colon): 68.6 µM
- GI50 (SK-MEL-5 melanoma): 3.3 µM
- TGI (SK-MEL-5 melanoma): 12.7 µM
- TGI (A549 NSCLC): > 100 µM
- GI50 (MDA-MB-435): 1.57 µM
- TGI (MDA-MB-435): 4.16 µM
- GI50 (OVCAR-3 ovarian): 3.59 µM
- TGI (OVCAR-3 ovarian): > 100 µM
- GI50 (NCI-H460 lung): 3.82 µM
- TGI (NCI-H460 lung): > 100 µM
- TGI (SNB-75 CNS): 14.6 µM
- TGI (SN12C renal): > 100 µM
- TGI (NCI/ADR-RES ovarian): 48.5 µM
- TGI (UACC-257 melanoma): > 100 µM
- TGI (T-47D breast): > 100 µM
- TGI (UO-31 renal): > 100 µM
- GI50 (CAKI-1 renal): 5.41 µM
- TGI (CAKI-1 renal): > 100 µM
- TGI (SW-620 colon): > 100 µM
